Publication PMC9364363 (RSC Advances, 2022)
Converted amounts (≈) assume the structure as drawn. Where two headings read alike, the source gives them in different places.

Assays:
Mtb H37Ra^lux = experiment: microbe, parasite or virus in culture; type: cell-based, Mycobacterium tuberculosis; details: for IC50: read-out: Mtb H37Ra^lux IC50; for MIC: read-out: Mtb H37Ra^lux IC90 (MIC)
[1] = tested on: MRC-5 lung fibroblast cell line
M. avium subsp. avium = experiment: microbe, parasite or virus in culture; type: cell-based, Mycobacterium avium subsp. avium; details: Mycobacterium avium, 168 h, read-out: IC50 M. avium subsp. avium
M. abscessus = experiment: microbe, parasite or virus in culture; type: cell-based, Mycobacterium abscessus; details: Mycobacteroides abscessus, 72 h, read-out: IC50 M. abscessus
in vitro = details: human
M. intracellulare = experiment: microbe, parasite or virus in culture; type: cell-based, Mycobacterium intracellulare; details: Mycobacterium intracellulare, 168 h, read-out: IC50 M. intracellulare
[2] = Mycobacterium tuberculosis, H37RA, 168 h

Compound	IC50 (Mtb H37Ra^lux; [2]) [µM]	MIC (Mtb H37Ra^lux; [2]) [µM]	T.I. CC50/IC50 [1]	IC50 (M. avium subsp. avium) [µM]	IC50 (M. abscessus) [µM]	CC50 (in vitro) [µM]	IC50 (M. intracellulare) [µM]	Mtb H37Ra^lux IC90 (MIC) (Mtb H37Ra^lux) [µM]	IC50 (Mtb H37Ra^lux) [µM]
COc1cccc(-n2cc(CN3CCN(C(=O)c4c(C)nc5sc6ccccc6n45)CC3)nn2)c1 [IT07, (4-((1-(3-Methoxyphenyl)-1H-1,2,3-triazol-4-yl)-methyl)-piperazin-1-yl)(2-methylbenzo-[d]-imidazo-[2,1-b]-thiazol-3-yl)-methanone]	7.27	15.4 (≈ 7.49 µg/mL)	–	–	–	–	–	–	–
Cc1nc2sccn2c1C(=O)N1CCN(Cc2cn(-c3cccc([N+](=O)[O-])c3)nn2)CC1 [IT23, (6-Methylimidazo-[2,1-b]-thiazol-5-yl)(4-((1-(3-nitrophenyl)-1H-1,2,3-triazol-4-yl)-methyl)-piperazin-1-yl)-methanone]	43.8	84.8 (≈ 38.4 µg/mL)	–	–	–	–	–	–	–
Cc1nc2sccn2c1C(=O)N1CCN(CCn2cc(C3CC3)nn2)CC1 [IT19, (4-(2-(4-Cyclopropyl-1H-1,2,3-triazol-1-yl)-ethyl)-piperazin-1-yl)(6-methylimidazo-[2,1-b]-thiazol-5-yl)-methanone]	> 128	> 128	–	–	–	–	–	–	–
Cc1nc2sccn2c1C(=O)N1CCN(CCn2cc(-c3ccccc3)nn2)CC1 [IT20, (6-Methylimidazo-[2,1-b]-thiazol-5-yl)(4-(2-(4-phenyl-1H-1,2,3-triazol-1-yl)-ethyl)-piperazin-1-yl)-methanone]	20.6	54.9 (≈ 23.2 µg/mL)	–	–	–	–	–	–	–
Cc1nc2sccn2c1C(=O)N1CCN(Cc2cn(-c3ccc(Br)cc3)nn2)CC1 [IT21, (4-((1-(4-Bromophenyl)-1H-1,2,3-triazol-4-yl)-methyl)-piperazin-1-yl)(6-methylimidazo-[2,1-b]-thiazol-5-yl)-methanone]	20.7	53 (≈ 25.8 µg/mL)	–	–	–	–	–	–	–
Cc1nc2sccn2c1C(=O)N1CCN(CCn2cc(CSc3nc4ccccc4[nH]3)nn2)CC1 [IT04, (4-(2-(4-(((1H-Benzo-[d]-imidazole-2-yl)-thio)-methyl)-1H-1,2,3-triazol-1-yl)-ethyl)-piperazin-1-yl)(6-methylimidazo-[2,1-b]-thiazol-5-yl)-methanone]	3.94	14.6 (≈ 7.41 µg/mL)	32.5	> 128	> 128	> 128	> 128	–	–
CCCCc1cn(CCN2CCN(C(=O)c3c(C)nc4sc5ccccc5n34)CC2)nn1 [IT12, (4-(2-(4-Butyl-1H-1,2,3-triazol-1-yl)-ethyl)-piperazin-1-yl)(2-methylbenzo-[d]-imidazo-[2,1-b]-thiazol-3-yl)-methanone]	43.7	62.8 (≈ 28.3 µg/mL)	–	–	–	–	–	–	–
Cc1nc2sccn2c1C(=O)N1CCN(Cc2cn(-c3ccccc3Cl)nn2)CC1 [IT26, (4-((1-(2-Chlorophenyl)-1H-1,2,3-triazol-4-yl)-methyl)-piperazin-1-yl)(6-methylimidazo-[2,1-b]-thiazol-5-yl)-methanone]	30.2	62.1 (≈ 27.5 µg/mL)	–	–	–	–	–	–	–
CCCCCCCCCc1cn(CCN2CCN(C(=O)c3c(C)nc4sc5ccccc5n34)CC2)nn1 [IT14, (2-methylbenzo-[d]-imidazo-[2,1-b]-thiazol-3-yl)(4-(2-(4-nonyl-1H-1,2,3-triazol-1-yl)-ethyl)-piperazin-1-yl)-methanone]	13.1	28 (≈ 14.6 µg/mL)	–	–	–	–	–	–	–
Cc1nc2sc3ccccc3n2c1C(=O)N1CCN(CCn2cc(-c3ccccc3)nn2)CC1 [IT15, (2-Methylbenzo-[d]-imidazo-[2,1-b]-thiazol-3-yl)(4-(2-(4-phenyl-1H-1,2,3-triazol-1-yl)-ethyl)-piperazin-1-yl)-methanone]	12.2	27.2 (≈ 12.8 µg/mL)	–	–	–	–	–	–	–
Cc1nc2sc3ccccc3n2c1C(=O)N1CCN(Cc2cn(-c3cccc([N+](=O)[O-])c3)nn2)CC1 [IT08, (2-Methylbenzo-[d]-imidazo-[2,1-b]-thiazol-3-yl)(4-((1-(3-nitrophenyl)-1H-1,2,3-triazol-4-yl)-methyl)-piperazin-1-yl)-methanone]	2.96	11.8 (≈ 5.94 µg/mL)	43.2	> 128	> 128	> 128	> 128	–	–
Cc1nc2sccn2c1C(=O)N1CCN(Cc2cn(-c3ccc([N+](=O)[O-])cc3)nn2)CC1 [IT25, (6-Methylimidazo-[2,1-b]-thiazol-5-yl)(4-((1-(4-nitrophenyl)-1H-1,2,3-triazol-4-yl)-methyl)-piperazin-1-yl)-methanone]	23.1	51.4 (≈ 23.2 µg/mL)	–	–	–	–	–	–	–
NNC(=O)c1ccncc1 [INH, isoniazid, reference compound]	0.04	0.09 (≈ 0.0123 µg/mL)	–	–	–	–	–	–	–
Cc1ccc(-n2cc(CN3CCN(C(=O)c4c(C)nc5sc6ccccc6n45)CC3)nn2)cc1C [IT09, (4-((1-(3,4-Dimethylphenyl)-1H-1,2,3-triazol-4-yl)-methyl)-piperazin-1-yl)(2-methylbenzo-[d]-imidazo-[2,1-b]-thiazol-3-yl)-methanone]	3.46	13.5 (≈ 6.55 µg/mL)	37.0	> 128	> 128	> 128	> 128	–	–
CCCCCCCCCc1cn(CCN2CCN(C(=O)c3c(C)nc4sccn34)CC2)nn1 [IT03, (6-Methylimidazo-[2,1-b]-thiazol-5-yl)(4-(2-(4-nonyl-1H-1,2,3-triazol-1-yl)-ethyl)-piperazin-1-yl)-methanone]	2.88	10.2 (≈ 4.82 µg/mL)	15.8	> 128	> 128	45.5	63.4	–	–
Cc1ccc(-n2cc(CN3CCN(C(=O)c4c(C)nc5sccn45)CC3)nn2)cc1C [IT24, (4-((1-(3,4-Dimethylphenyl)-1H-1,2,3-triazol-4-yl)-methyl)-piperazin-1-yl)(6-methylimidazo-[2,1-b]-thiazol-5-yl)-methanone]	19.8	48.8 (≈ 21.2 µg/mL)	–	–	–	–	–	–	–
(4-(2-(4-((5-Chloropyridin-2-yl)oxy)-1H-1,2,3-triazol-1-yl)-ethyl)-piperazin-1-yl)(2-methylbenzo-[d]-imidazo-[2,1-b]-thiazol-3-yl)-methanone [IT17]	–	–	–	–	–	–	–	115.57	19.7
Cc1nc2sccn2c1C(=O)N1CCN(CCn2cc(COc3ccc(Cl)cn3)nn2)CC1 [IT05, (4-(2-(4-(((5-Chloropyridin-2-yl)-oxy)-methyl)-1H-1,2,3-triazol-1-yl)ethyl)-piperazin-1-yl)(6-methylimidazo-[2,1-b]-thiazol-5-yl)-methanone]	49.6	> 128	–	–	–	–	–	–	–
Cc1nc2sc3ccccc3n2c1C(=O)N1CCN(Cc2cn(-c3ccc([N+](=O)[O-])cc3)nn2)CC1 [IT10, (2-Methylbenzo-[d]-imidazo-[2,1-b]-thiazol-3-yl)(4-((1-(4-nitrophenyl)-1H-1,2,3-triazol-4-yl)-methyl)-piperazin-1-yl)-methanone]	2.32	7.05 (≈ 3.54 µg/mL)	55.2	> 128	> 128	> 128	> 128	–	–
Cc1nc2sc3ccccc3n2c1C(=O)N1CCN(CCn2cc(-c3ccc(C(C)(C)C)cc3)nn2)CC1 [IT13, (4-(2-(4-(4-(tert-Butyl)-phenyl)-1H-1,2,3-triazol-1-yl)-ethyl)-piperazin-1-yl)(2-methylbenzo-[d]-imidazo-[2,1-b]-thiazol-3-yl)-methanone]	3.19	7.24 (≈ 3.82 µg/mL)	13.7	17.1	> 128	43.7	> 128	–	–
CC/C(=C(\c1ccccc1)c1ccc(OCCN(C)C)cc1)c1ccccc1 [Tamoxifen, reference compound]	–	–	–	–	–	12.4	–	–	–
COc1cccc(-n2cc(CN3CCN(C(=O)c4c(C)nc5sccn45)CC3)nn2)c1 [IT27, (4-((1-(3-Methoxyphenyl)-1H-1,2,3-triazol-4-yl)-methyl)-piperazin-1-yl)(6-methylimidazo-[2,1-b]-thiazol-5-yl)-methanone]	46	98.1 (≈ 42.9 µg/mL)	–	–	–	–	–	–	–
Cc1nc2sc3ccccc3n2c1C(=O)N1CCN(Cc2cn(-c3cccc(Cl)c3)nn2)CC1 [IT11, (4-((1-(3-Chlorophenyl)-1H-1,2,3-triazol-4-yl)-methyl)-piperazin-1-yl)(2-methylbenzo-[d]-imidazo-[2,1-b]-thiazol-3-yl)-methanone]	3.86	14.5 (≈ 7.11 µg/mL)	7.6	100	> 128	29.4	98.8	–	–
Cc1nc2sc3ccccc3n2c1C(=O)N1CCN(CCn2cc(C3CC3)nn2)CC1 [IT18, (4-(2-(4-Cyclopropyl-1H-1,2,3-triazol-1-yl)-ethyl)-piperazin-1-yl)(2-methylbenzo-[d]-imidazo-[2,1-b]-thiazol-3-yl)-methanone]	29.1	63.8 (≈ 27.8 µg/mL)	–	–	–	–	–	–	–
CCCCc1cn(CCN2CCN(C(=O)c3c(C)nc4sccn34)CC2)nn1 [IT01, (4-(2-(4-Butyl-1H-1,2,3-triazol-1-yl)-ethyl)-piperazin-1-yl)(6-methylimidazo-[2,1-b]-thiazol-5-yl)-methanone]	6.12	52 (≈ 20.9 µg/mL)	–	–	–	–	–	–	–
Cc1nc2sccn2c1C(=O)N1CCN(Cc2cn(-c3ccc(F)c(Cl)c3)nn2)CC1 [IT22, (4-((1-(3-Chloro-4-fluorophenyl)-1H-1,2,3-triazol-4-yl)-methyl)-piperazin-1-yl)(6-methylimidazo-[2,1-b]-thiazol-5-yl)-methanone]	5.28	57.8 (≈ 26.6 µg/mL)	–	–	–	–	–	–	–
Cc1nc2sc3ccccc3n2c1C(=O)N1CCN(Cc2cn(-c3ccc(Cl)cc3Cl)nn2)CC1 [IT06, (4-((1-(2,4-Dichlorophenyl)-1H-1,2,3-triazol-4-yl)-methyl)-piperazin-1-yl)(2-methylbenzo-[d]-imidazo-[2,1-b]-thiazol-3-yl)-methanone]	2.03	15.2 (≈ 8.01 µg/mL)	–	–	–	–	–	–	–
